Here are results for 8 compounds from ChEMBL document CHEMBL5715952 (Oncotarget, 2015).

Test [1] in a line: Ratio of IC50 for inhibition of CAMKII in human ANBL6 cells assessed as reduction of cell viability to IC50 for inhibition of CAMKII in human ANBL6/BR resistant cells assessed as reduction of cell viability. The settings on record: condition multiple myeloma.
Test [2] in a line: Inhibition of CAMKII in human bortezomib-resistant ANBL6 cells assessed as reduction of cell growth incubated for 72 hrs by CellTiter 96 aqueous one solution cell proliferation assay. In kind it is cell-based.
Test [3] can be described thus: Inhibition of CAMKII in human RPMI-8226 cells assessed as reduction of cell growth incubated for 72 hrs by CellTiter 96 aqueous one solution cell proliferation assay. The class given is cell-based. To be noted: RPMI-8226, 72 h.
A short description of test [4]: Inhibition of CAMKII in human ANBL-6 cells assessed as reduction of cell growth incubated for 72 hrs by CellTiter 96 aqueous one solution cell proliferation assay. The class given is cell-based. To be noted: ANBL-6, 72 h.
Test [5] in a line: Ratio of IC50 for inhibition of CAMKII in human RPMI-8226 cells assessed as reduction of cell viability to IC50 for inhibition of CAMKII in human RPMI-8226/BR resistant cells assessed as reduction of cell viability. To be noted: condition multiple myeloma.
A short description of test [6]: Inhibition of CAMKII in Melphalan Resistant human RPMI-8226 cells assessed as reduction of cell growth incubated for 72 hrs by CellTiter 96 aqueous one solution cell proliferation assay. In kind it is cell-based. The settings on record: Melphalan-resistant RPMI-8226 cell.
A short description of test [7]: Ratio of IC50 for inhibition of CAMKII in human RPMI-8226 cells assessed as reduction of cell viability to IC50 for inhibition of CAMKII in human melphalan-resistant RPMI-8226 cells assessed as reduction of cell viability. The settings on record: time 72 hrs; condition multiple myeloma.
Test [8] in a line: Inhibition of CAMKII in human U-266 cells assessed as reduction of cell growth incubated for 72 hrs by CellTiter 96 aqueous one solution cell proliferation assay. The class given is cell-based. The settings on record: U-266, 72 h.
A short description of test [9]: Inhibition of CAMKII in bortezomib Resistant human RPMI-8226 cells assessed as reduction of cell growth incubated for 72 hrs by CellTiter 96 aqueous one solution cell proliferation assay. The class given is cell-based. The settings on record: Bortezomib-resistant RPMI-8226, 72 h.
Test [10] deals with T1, MAP kinase p38 (Homo sapiens, UniProt O15264+Q15759+Q16539+P53778). Kind of test: Inhibition of c-JUN in bortezomib Resistant human RPMI-8226 cells assessed as reduction of cell growth incubated for 72 hrs by CellTiter 96 aqueous one solution cell proliferation assay. In kind it is cell-based. The settings on record: bortezomib-resistant rpmi-8226.
Test [11] addresses T1, MAP kinase p38. Kind of test: Inhibition of c-JUN in human U-266 cells assessed as reduction of cell growth incubated for 72 hrs by CellTiter 96 aqueous one solution cell proliferation assay. The class given is cell-based.
Test [12] deals with T1, MAP kinase p38. Kind of test: Inhibition of c-JUN in human RPMI-8226 cells assessed as reduction of cell growth incubated for 72 hrs by CellTiter 96 aqueous one solution cell proliferation assay. In kind it is cell-based.
Test [13] deals with T1, MAP kinase p38. Kind of test: Inhibition of c-JUN in human ANBL-6 cells assessed as reduction of cell growth incubated for 72 hrs by CellTiter 96 aqueous one solution cell proliferation assay. The class given is cell-based.
Test [14] concerns the target T1, MAP kinase p38. Kind of test: Inhibition of c-JUN in human bortezomib-resistant ANBL6 cells assessed as reduction of cell growth incubated for 72 hrs by CellTiter 96 aqueous one solution cell proliferation assay. The class given is cell-based.
The target in test [15] is T1, MAP kinase p38. Kind of test: Ratio of IC50 for inhibition of c-JUN in human RPMI-8226 cells assessed as reduction of cell viability to IC50 for inhibition of c-JUN in human RPMI-8226/BR resistant cells assessed as reduction of cell viability. The class given is cell-based.
Test [16] concerns the target T1, MAP kinase p38. Kind of test: Ratio of IC50 for inhibition of c-JUN in human ANBL6 cells assessed as reduction of cell viability to IC50 for inhibition of c-JUN in human ANBL6/BR resistant cells assessed as reduction of cell viability. The class given is cell-based.
In test [17] the target is T1, MAP kinase p38. Kind of test: Ratio of IC50 for inhibition of c-JUN in human RPMI-8226 cells assessed as reduction of cell viability to IC50 for inhibition of c-JUN in human melphalan-resistant RPMI-8226 cells assessed as reduction of cell viability. In kind it is cell-based. The settings on record: time 72.0 hrs.
For test [18], the target named is T1, MAP kinase p38. Kind of test: Inhibition of c-JUN in Melphalan Resistant human RPMI-8226 cells assessed as reduction of cell growth incubated for 72 hrs by CellTiter 96 aqueous one solution cell proliferation assay. The class given is cell-based. The settings on record: melphalan-resistant rpmi-8226 cell.
Test [19] can be described thus: cells. To be noted: Homo sapiens, U-266, 72 h.
The nature of test [20]: cells. To be noted: Homo sapiens, RPMI-8226, 72 h.
A short description of test [21]: cells. The settings on record: Homo sapiens, Bortezomib-resistant RPMI-8226, 72 h.
The target in test [22] is Baculoviral IAP repeat-containing protein 5 (Homo sapiens) (UniProt O15392). Kind of test: Ratio of IC50 for inhibition of survivin in human RPMI-8226 cells assessed as reduction of cell viability to IC50 for inhibition of survivin in human RPMI-8226/BR resistant cells assessed as reduction of cell viability. The class given is cell-based.
Baculoviral IAP repeat-containing protein 5 (Homo sapiens), sequence (O15392 whole entry): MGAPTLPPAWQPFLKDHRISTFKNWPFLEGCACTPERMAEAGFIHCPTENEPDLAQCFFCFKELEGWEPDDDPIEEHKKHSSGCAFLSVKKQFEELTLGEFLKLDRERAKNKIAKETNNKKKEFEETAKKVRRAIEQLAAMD
Test [23] has the same target. Kind of test: Ratio of IC50 for inhibition of survivin in human RPMI-8226 cells assessed as reduction of cell viability to IC50 for inhibition of survivin in human melphalan-resistant RPMI-8226 cells assessed as reduction of cell viability. To be noted: time 72.0 hrs. The class given is cell-based.
For test [24] the target is unchanged. Kind of test: Ratio of IC50 for inhibition of survivin in human ANBL6 cells assessed as reduction of cell viability to IC50 for inhibition of survivin in human ANBL6/BR resistant cells assessed as reduction of cell viability. In kind it is cell-based.
Test [25] is described as follows: cells. To be noted: Homo sapiens, Melphalan-resistant RPMI-8226 cell, 72 h.
A short description of test [26]: cells. To be noted: Homo sapiens, Bortezomib-resistant RPMI-8226, 72 h. This is another data set of the same source.
Test [27] is described as follows: cells. The settings on record: Homo sapiens, Bortezomib-resistant ANBL6 cell, 72 h.
Test [28] in a line: cells. To be noted: Homo sapiens, ANBL-6, 72 h.
Test [29] deals with T2, Heat shock protein HSP90 (Homo sapiens, UniProt P07900+P08238). The settings on record: melphalan-resistant rpmi-8226 cell.
Test [30] concerns the target T2, Heat shock protein HSP90. The settings on record: bortezomib-resistant rpmi-8226.
Test [31] deals with T2, Heat shock protein HSP90. The settings on record: anbl-6.
Test [32] addresses T2, Heat shock protein HSP90. To be noted: u-266.
Test [33] has as its target T2, Heat shock protein HSP90. The settings on record: rpmi-8226.
The target of test [34] is T2, Heat shock protein HSP90. To be noted: bortezomib-resistant anbl6 cell.

For orientation: IC50 means the concentration at which inhibition is half-maximal. As to `COc1ccc(S(=O)(=O)N(CCO)c2ccccc2CN(C)C/C=C/c2ccc(Cl)cc2)cc1`, the entries for the “Ratio IC50” value in test [1], in test [5] and in test [7] were 1, 1 and 1.2, respectively. Further, the IC50 came out at 10 µM in [2]; 10 µM in test [3]; 10 µM in [4]; 8.32 µM in [6]; 10 µM in test [8]; 10 µM in [9].

Regarding `Cn1nc2c3c(cccc31)C(=O)c1ccccc1-2`, the IC50 at MAP kinase p38 [10] was 13.6498 µM; on MAP kinase p38 [11], 44.8735 µM; at MAP kinase p38 [12], 10.415 µM; on MAP kinase p38 [13], 8.1648 µM; on MAP kinase p38 [14], 32.4358 µM; at MAP kinase p38 [18], 8.6186 µM. Moreover, the results for the Ratio IC50 on MAP kinase p38 [15], at MAP kinase p38 [16] and on MAP kinase p38 [17] were 0.76, 0.25 and 2.4, respectively.

Turning to `COc1cc(Oc2ccnc3cc(OC)c(OC)cc23)ccc1NC(=O)NC(C)c1nccs1` (stereo not given), the IC50 in “cells [19]” and in “cells [20]” was 10 µM throughout.

Turning to `COc1ccc(S(=O)(=O)Nc2ccccc2CN(C)C/C=C/c2ccc(Cl)cc2)cc1`, the figures for the “Ratio IC50” value in test [1], in test [5] and in [7] were 1, 1 and 2.1, respectively. Moreover, the IC50 in [2] was 10 µM; in test [3], 10 µM; in [4], 10 µM; in test [6], 4.79 µM; in test [8] it was 10 µM; in test [9] it was 10 µM.

Consider `Cc1[nH]c(/C=C2/C(=O)Nc3ccc(S(=O)(=O)N(C)c4cccc(Cl)c4)cc32)c(C)c1C(=O)N1CCN(C)CC1`, for which the IC50 in “cells [21]” turned out to be 10 µM.

For the compound `COCC[n+]1c2c(n(Cc3cnccn3)c1C)C(=O)c1ccccc1C2=O`, the values for the Ratio IC50 in test [22], in [23] and in test [24] were 0.33, 1.5 and 3.15, respectively.

With `COc1cc2c(Oc3ccc4[nH]c(C)cc4c3F)ncnc2cc1OCCCN1CCCC1` [CEDIRANIB], the IC50 in the test “cells [25]” came to 4.79 µM; in the test “cells [26]”, 2.46 µM; in “cells [19]”, 6.46 µM; in “cells [20]”, 2.95 µM; in “cells [27]” it was 10 µM; in “cells [28]”, 10 µM.

On to `CN(NC(=O)CC(=O)NN(C)C(=S)c1ccccc1)C(=S)c1ccccc1` [ELESCLOMOL], for which the IC50 was 0.0072 µM on Heat shock protein HSP90 [29]; 0.0229 µM at Heat shock protein HSP90 [30]; 0.0489 µM against Heat shock protein HSP90 [31]; 0.0535 µM at Heat shock protein HSP90 [32]; 0.0167 µM on Heat shock protein HSP90 [33]; 0.0076 µM against Heat shock protein HSP90 [34].
